Several values for one entry are separate records, joined by “and”; a condition that tells them apart may be missing. Equal entries are not always repeated.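 How tested: cells in 96-well plates exposed to compound for 48 hours at five concentrations. The concentration for 50% growth inhibition is given as GI50. The concentration for full growth arrest is given as TGI.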
tested on: ACHN renal; assay: NCI tumour cell line growth inhibition, 48 h

SMILES | TGI | GI50
Cc1nc(-c2nc(C)c(C(=O)NNC(=O)C[n+]3ccccc3)s2)sc1C(=O)NNC(=O)C[n+]1ccccc1 | > 100 µM | –
CN(C)C=Nc1nc(=O)n(C2CCC(CO)O2)cc1F (stereo unspecified) | > 100 µM | –
O=c1[nH]c(-c2ccccc2)nc2cc(Cl)ccc12 | > 100 µM | –
Cc1ccc(S(=O)(=O)N2CCC2c2ccccc2)cc1 (stereo unspecified) | > 100 µM | –
CCCOc1nc(N)c2cnn(C3CCCCO3)c2n1 (stereo unspecified) | > 100 µM | –
C/C(CN1C(=O)c2ccccc2C1=O)=N\NS(=O)(=O)c1ccc(Cl)cc1 | > 100 µM | –
O=C(Nc1cccc(C(F)(F)F)c1)Nc1cccc(C(F)(F)F)c1 | 7.6 µM | 0.422 µM
COc1ccc(/C=C/COC(C)=O)cc1OC | > 100 µM | –
C=C(C)C(=O)O[C@@H]1C[C@@]2(C)O[C@@H]2C[C@H](O)/C(C)=C/[C@H]2OC(=O)C(=C)[C@@H]21 | > 100 µM | –
CC(=O)OC1(C)N=NC2(CCCCC2)O1 (stereo unspecified) | > 100 µM | –
Cc1ccc(-c2nc(N3CCNCC3)c3oc(-c4ccc(C)cc4)nc3n2)cc1 | 4.78 µM | 2.23 µM
[O-][Cl+3]([O-])([O-])[O-].[O]=[Ru]=[O].c1ccc(-c2ccccn2)nc1.c1ccc(-c2ccccn2)nc1 | > 100 µM | > 100 µM
Cc1ccc(NC2=C3CCCCC3OC2=O)cc1 (stereo unspecified) | > 100 µM | > 100 µM
O=C1C(C(Nc2ccccc2)c2ccccc2)=C([O-])c2ccccc21.O=C1C(C(Nc2ccccc2)c2ccccc2)=C([O-])c2ccccc21.[Cu+2] (stereo unspecified) | > 100 µM | 86.2 µM
CN(C)CC1CCC/C1=N/OC(=O)c1ccccc1 (stereo unspecified) | > 100 µM | –
CCOC(=O)C1Sc2ccccc2N=C1C (stereo unspecified) | > 100 µM | –
C/C=C/[C@@H]1O[C@@H]2COC(=O)C2=C[C@@H]1O | 13.4 µM | 3.58 µM
O=C(NC1C=CCC2C(=O)N(c3ccccc3)C(=O)C12)OCc1ccccc1 (stereo unspecified) | > 100 µM | –
Cc1[cH-]c(=O)n(-c2ccccc2)n1.[Au+].[Au].c1ccc([PH+](c2ccccc2)c2ccccc2)cc1.c1ccc([PH+](c2ccccc2)c2ccccc2)cc1 | 58.6 µM | 22.3 µM
CC(=O)OCc1ccc2c(c1)C(O)NC(=O)O2 (stereo unspecified) | > 100 µM | –
CC1(C)CC(c2c[nH]c3ccccc23)=CC2=Nc3ccccc3C21O (stereo unspecified) | > 100 µM | –
CN1C(=O)C(=O)N2c3ccc(Cl)cc3C3(c4ccccc4)N=CC12O3 (stereo unspecified) | 17.7 µM | –
COc1ccc(CN2C(=O)C(Cl)=C(Nc3cccc(C(F)(F)F)c3)C2=O)cc1 | 20.5 µM | 6.71 µM
N#CCCC[Si]12OCCN(CCO1)CCO2 | > 100 µM | –
O=C(/C=C/c1c(O)ccc2ccccc12)c1ccc([N+](=O)[O-])cc1 | 54 µM | –
CN1CCN(c2ccc(Nc3ncc(Cl)c(NC[C@@H]4CCCO4)n3)cc2)CC1 | > 100 µM | 0.973 µM

tested on: M14 melanoma; assay: NCI tumour cell line growth inhibition, 48 h

SMILES | TGI | GI50
C[C@@]1(O)CC[C@]2(C)C3CCCC3[C@H]12 (stereo partly specified) | > 100 µM | –
CC[C@@H](c1ccc(O)c(O)c1)[C@@H](CC)c1ccc(O)c(O)c1 | 13.5 µM | 3.59 µM
CC(=O)[O-].CC(=O)[O-].O=C(N/N=C/c1cc(Cl)cc(Cl)c1O)c1ccncc1.[Cu+2] | > 100 µM | –
C#Cc1cccc(Nc2nc3cc([N+](=O)[O-])ccc3nc2Nc2ccc(O)cc2)c1 | 2.99 µM | 1.43 µM
O=C(Nc1nc(=S)[nH][nH]1)C(=O)C(C(=O)c1ccc2ccccc2c1)C1OC(=O)c2ccccc21 (stereo unspecified) | 40.9 µM | –
CN(C)CC(O)c1ccc(/C=C/c2ccc(Cl)cc2)cc1 (stereo unspecified) | 3.11 µM | 1.67 µM
CCOC(=O)C1=C(C)N(NC(=O)Nc2ccccc2)C2(N)N(NC(=O)Nc3ccccc3)C(C)=C(C(=O)OCC)C12C(=O)OCC (stereo unspecified) | > 100 µM | –
Cn1cc(-c2cc3c(N4CCN(c5ncc([C@@](C)(N)c6ccc(F)cc6)cn5)CC4)ncnn3c2)cn1 | > 100 µM | 4.42 µM
CCCCCCCCCCSC(=N)N (tested in a mixture with another compound) | 3.85 µM | 1.87 µM
O=C(O)CSc1n[nH]c(-c2ccccc2O)n1 | > 100 µM | –
Cc1nc(-c2nc(C)c(C(=O)NNC(=O)C[n+]3ccccc3)s2)sc1C(=O)NNC(=O)C[n+]1ccccc1 | > 100 µM | –
CN(C)C=Nc1nc(=O)n(C2CCC(CO)O2)cc1F (stereo unspecified) | > 100 µM | –
O=c1[nH]c(-c2ccccc2)nc2cc(Cl)ccc12 | > 100 µM | –
Cc1ccc(S(=O)(=O)N2CCC2c2ccccc2)cc1 (stereo unspecified) | > 100 µM | –
CCCOc1nc(N)c2cnn(C3CCCCO3)c2n1 (stereo unspecified) | > 100 µM | –
C/C(CN1C(=O)c2ccccc2C1=O)=N\NS(=O)(=O)c1ccc(Cl)cc1 | > 100 µM | –

SMILES | TGI | GI50
O=C(Nc1cccc(C(F)(F)F)c1)Nc1cccc(C(F)(F)F)c1 | 3.93 µM | 1.32 µM
C=C(C)C(=O)O[C@@H]1C[C@@]2(C)O[C@@H]2C[C@H](O)/C(C)=C/[C@H]2OC(=O)C(=C)[C@@H]21 | > 100 µM | –
CC(=O)OC1(C)N=NC2(CCCCC2)O1 (stereo unspecified) | > 100 µM | –
Cc1ccc(-c2nc(N3CCNCC3)c3oc(-c4ccc(C)cc4)nc3n2)cc1 | 3.69 µM | 1.83 µM
[O-][Cl+3]([O-])([O-])[O-].[O]=[Ru]=[O].c1ccc(-c2ccccn2)nc1.c1ccc(-c2ccccn2)nc1 | > 100 µM | > 100 µM
Cc1ccc(NC2=C3CCCCC3OC2=O)cc1 (stereo unspecified) | > 100 µM | > 100 µM
O=C1C(C(Nc2ccccc2)c2ccccc2)=C([O-])c2ccccc21.O=C1C(C(Nc2ccccc2)c2ccccc2)=C([O-])c2ccccc21.[Cu+2] (stereo unspecified) | > 100 µM | 18.5 µM
CN(C)CC1CCC/C1=N/OC(=O)c1ccccc1 (stereo unspecified) | > 100 µM | –
C/C=C/[C@@H]1O[C@@H]2COC(=O)C2=C[C@@H]1O | 35.3 µM | 13.7 µM
O=C(NC1C=CCC2C(=O)N(c3ccccc3)C(=O)C12)OCc1ccccc1 (stereo unspecified) | > 100 µM | –
Cc1[cH-]c(=O)n(-c2ccccc2)n1.[Au+].[Au].c1ccc([PH+](c2ccccc2)c2ccccc2)cc1.c1ccc([PH+](c2ccccc2)c2ccccc2)cc1 | 41.5 µM | 9.12 µM and 9.46 µM
CC(=O)OCc1ccc2c(c1)C(O)NC(=O)O2 (stereo unspecified) | > 100 µM | –
CC1(C)CC(c2c[nH]c3ccccc23)=CC2=Nc3ccccc3C21O (stereo unspecified) | > 100 µM | –
CN1C(=O)C(=O)N2c3ccc(Cl)cc3C3(c4ccccc4)N=CC12O3 (stereo unspecified) | 15 µM | –
O=C(/C=C/c1c(O)ccc2ccccc12)c1ccc([N+](=O)[O-])cc1 | 41.6 µM | –
CN1CCN(c2ccc(Nc3ncc(Cl)c(NC[C@@H]4CCCO4)n3)cc2)CC1 | 11.2 µM | 1.13 µM

tested on: SN12C renal; assay: NCI tumour cell line growth inhibition, 48 h

SMILES | TGI | GI50
C[C@@]1(O)CC[C@]2(C)C3CCCC3[C@H]12 (stereo partly specified) | > 100 µM | –
CC[C@@H](c1ccc(O)c(O)c1)[C@@H](CC)c1ccc(O)c(O)c1 | 41.3 µM | 19.3 µM
CC(=O)[O-].CC(=O)[O-].O=C(N/N=C/c1cc(Cl)cc(Cl)c1O)c1ccncc1.[Cu+2] | > 100 µM | –
O=C(Nc1nc(=S)[nH][nH]1)C(=O)C(C(=O)c1ccc2ccccc2c1)C1OC(=O)c2ccccc21 (stereo unspecified) | 47.2 µM | –
CN(C)CC(O)c1ccc(/C=C/c2ccc(Cl)cc2)cc1 (stereo unspecified) | 22.9 µM | 10.4 µM
Cc1nnc2ccnn2c1C | > 100 µM | > 100 µM
CCOC(=O)C1=C(C)N(NC(=O)Nc2ccccc2)C2(N)N(NC(=O)Nc3ccccc3)C(C)=C(C(=O)OCC)C12C(=O)OCC (stereo unspecified) | 3.01 µM | –
Cn1cc(-c2cc3c(N4CCN(c5ncc([C@@](C)(N)c6ccc(F)cc6)cn5)CC4)ncnn3c2)cn1 | > 100 µM | 5.46 µM
CCCCCCCCCCSC(=N)N (tested in a mixture with another compound) | 21.6 µM | 6.28 µM
O=C(O)CSc1n[nH]c(-c2ccccc2O)n1 | > 100 µM | –
Cc1nc(-c2nc(C)c(C(=O)NNC(=O)C[n+]3ccccc3)s2)sc1C(=O)NNC(=O)C[n+]1ccccc1 | > 100 µM | –
CN(C)C=Nc1nc(=O)n(C2CCC(CO)O2)cc1F (stereo unspecified) | > 100 µM | –
Cc1ccc(S(=O)(=O)N2CCC2c2ccccc2)cc1 (stereo unspecified) | > 100 µM | –
CCCOc1nc(N)c2cnn(C3CCCCO3)c2n1 (stereo unspecified) | > 100 µM | –
C/C(CN1C(=O)c2ccccc2C1=O)=N\NS(=O)(=O)c1ccc(Cl)cc1 | > 100 µM | –
O=C(Nc1cccc(C(F)(F)F)c1)Nc1cccc(C(F)(F)F)c1 | 5.24 µM | 0.923 µM
COc1ccc(/C=C/COC(C)=O)cc1OC | > 100 µM | –
C=C(C)C(=O)O[C@@H]1C[C@@]2(C)O[C@@H]2C[C@H](O)/C(C)=C/[C@H]2OC(=O)C(=C)[C@@H]21 | > 100 µM | –
CC(=O)OC1(C)N=NC2(CCCCC2)O1 (stereo unspecified) | > 100 µM | –
Cc1ccc(-c2nc(N3CCNCC3)c3oc(-c4ccc(C)cc4)nc3n2)cc1 | 3.61 µM | 1.88 µM
[O-][Cl+3]([O-])([O-])[O-].[O]=[Ru]=[O].c1ccc(-c2ccccn2)nc1.c1ccc(-c2ccccn2)nc1 | > 100 µM | 50.9 µM
Cc1ccc(NC2=C3CCCCC3OC2=O)cc1 (stereo unspecified) | > 100 µM | 93 µM

— PubChem BioAssay (NCI)
